Target: T1, hDGAT1 (Homo sapiens, UniProt O75907)
T1 sequence (O75907 1-488): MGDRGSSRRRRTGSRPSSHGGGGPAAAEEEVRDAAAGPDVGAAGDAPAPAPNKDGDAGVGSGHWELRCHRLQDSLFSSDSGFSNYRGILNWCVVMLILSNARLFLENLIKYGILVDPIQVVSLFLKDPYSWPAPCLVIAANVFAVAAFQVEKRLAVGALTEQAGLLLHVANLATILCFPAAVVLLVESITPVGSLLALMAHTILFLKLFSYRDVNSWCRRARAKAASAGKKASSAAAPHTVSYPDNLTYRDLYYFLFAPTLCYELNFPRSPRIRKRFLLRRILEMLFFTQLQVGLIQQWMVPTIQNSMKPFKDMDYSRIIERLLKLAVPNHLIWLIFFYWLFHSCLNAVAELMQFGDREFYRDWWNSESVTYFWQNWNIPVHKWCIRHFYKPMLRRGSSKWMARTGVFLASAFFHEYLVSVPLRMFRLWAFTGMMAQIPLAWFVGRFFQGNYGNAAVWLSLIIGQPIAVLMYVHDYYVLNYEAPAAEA
Test: In-vitro DGAT1 assay (14C oleoyl CoA, hDGAT1 microsomes from Sf9 cells)
Details: for inhibition at 1 µM: read-out: % Inhibition of hDGAT1; for % Inhibition of hDGAT1: at 1 μM

inhibition at 1 µM	% Inhibition of hDGAT1	SMILES
10 to 50%		COc1cc(NC(=O)c2ccc(OC(F)(F)F)cc2)ccc1-c1ccc2c(c1)C(=O)N([C@H](C(=O)O)C(C)C)C2 [Example 464, (S)-2-(6-(2-Methoxy-4-(4-(trifluoromethoxy)benzamido)phenyl)-1-oxoisoindolin-2-yl)-3-methylbutanoic acid]
	+ (10-50% Inhibition)	O=C(Nc1ccc(-c2ccc3c(c2)C(=O)N(C24C[C@@H]5C[C@@H](CC(C(=O)O)(C5)C2)C4)C3)cc1)c1cccc(Cl)c1 [Example 567, (1r,3s,5R,7S)-3-(6-(4-(3-Chlorobenzamido)phenyl)-1-oxoisoindolin-2-yl)adamantane-1-carboxylic acid]
> 50%		Cc1cc(NC(=O)c2ccc(C(C)(C)C)cc2)ccc1-c1ccc2c(c1)C(=O)N([C@H](C(=O)O)C(C)C)C2 [Example 468, (S)-2-(6-(4-(4-tert-Butylbenzamido)-2-methylphenyl)-1-oxoisoindolin-2-yl)-3-methylbutanoic acid]
10 to 50%		CC(C)C[C@@H](C(=O)O)N1Cc2cc(-c3ccc(NC(=O)Nc4cccc(C(F)(F)F)c4)cc3)ccc2C1=O [Example 388, (S)-4-Methyl-2-(1-oxo-5-(4-(3-(3-(trifluoromethyl)phenyl)ureido)phenyl)isoindolin-2-yl)pentanoic acid]
> 50%		CC(C)[C@@H](C(=O)O)N1Cc2ccc(-c3ccc(NC(=O)c4ccc(C(C)(C)C)cc4)cc3Cl)cc2C1=O [Example 480, (S)-2-(6-(4-(4-tert-Butylbenzamido)-2-chlorophenyl)-1-oxoisoindolin-2-yl)-3-methylbutanoic acid]
10 to 50%		CC(C)[C@@H](C(=O)O)N1Cc2ccc(-c3ccc(NC(=O)Cc4ccccc4)cc3)cc2C1=O [Example 659, (S)-3-Methyl-2-(1-oxo-6-(4-(2-phenylacetamido)phenyl)isoindolin-2-yl)butanoic acid]
> 50%		CC(C)[C@@H](C(=O)O)N1Cc2ccc(-c3ccc(NC(=O)c4nc(-c5ccccc5)cs4)cc3)cc2C1=O [Example 624, (S)-3-Methyl-2-(1-oxo-6-(4-(4-phenylthiazole-2-carboxamido)phenyl)isoindolin-2-yl)butanoic acid]
> 50%		C[C@@H](C(=O)O)N1Cc2cc(-c3ccc(NC(=O)Nc4cccc(C(F)(F)F)c4)cc3)ccc2C1=O [Example 367, (S)-2-(1-Oxo-5-(4-(3-(3-(trifluoromethyl)phenyl)ureido)phenyl)isoindolin-2-yl)propanoic acid]
> 50%		CC(C)[C@@H](C(=O)O)N1Cc2ccc(-c3ccc(NC(=O)c4ccc(C(C)(C)C#N)cc4)cc3)cc2C1=O [Example 631, (S)-2-(6-(4-(4-(2-Cyanopropan-2-yl)benzamido)phenyl)-1-oxoisoindolin-2-yl)-3-methylbutanoic acid]
> 50%		CCCCCc1ccc(C(=O)Nc2ccc(-c3ccc4c(c3)C(=O)N([C@H](C(=O)O)C(C)C)C4)c(F)c2)cc1 [Example 610, (S)-2-(6-(2-Fluoro-4-(4-pentylbenzamido)phenyl)-1-oxoisoindolin-2-yl)-3-methyl butanoic acid]
	++ (>50% Inhibition)	Cc1ccc(C(=O)Nc2ccc(-c3ccc4c(c3)C(=O)N(C35C[C@@H]6C[C@@H](CC(C(=O)O)(C6)C3)C5)C4)cc2)cc1 [Example 572, (1r,3s,5R,7S)-3-(6-(4-(4-Methylbenzamido)phenyl)-1-oxoisoindolin-2-yl)adamantane-1-carboxylic acid]

Further lines, the compound ahead of its results:

SMILES	inhibition at 1 µM	% Inhibition of hDGAT1
CC(C)[C@@H](C(=O)O)N1Cc2cc(-c3ccc(NC(=O)c4ccccc4)cc3)ccc2C1=O [Example 305, (S)-2-(5-(4-Benzamidophenyl)-1-oxoisoindolin-2-yl)-3-methylbutanoic acid]	10 to 50%	
CC(C)[C@@H](C(=O)O)N1Cc2ccc(-c3ccc(NC(=O)Nc4cc(F)cc(F)c4)cc3)cc2C1=O [Example 30, (S)-2-(6-(4-(3-(3,5-Difluorophenyl)ureido)phenyl)-1-oxoisoindolin-2-yl)-3-methylbutanoic acid]	10 to 50%	
Cc1ccc(C(=O)Nc2ccc(-c3ccc4c(c3)C(=O)N([C@H](C(=O)O)C(C)C)C4)cc2)cc1 [Example 112, (S)-3-Methyl-2-(6-(4-(4-methylbenzamido)phenyl)-1-oxoisoindolin-2-yl)butanoic acid]	> 50%	
CC(C)[C@@H](C(=O)O)N1Cc2cc(-c3ccc(NC(=S)Nc4ccc(C#N)cc4)cc3)ccc2C1=O [Example 269, (S)-2-(5-(4-(3-(4-Cyanophenyl)thioureido)phenyl)-1-oxoisoindolin-2-1)-3-methyl butanoic acid]		+ (10-50% Inhibition)
CC(C)[C@@H](C(=O)O)N1Cc2ccc(-c3ccc(NC(=O)c4cccc(F)c4)cc3)cc2C1=O [Example 106, (S)-2-(6-(4-(3-Fluorobenzamido)phenyl)-1-oxoisoindolin-2-yl)-3-methylbutanoic acid]	> 50%	
O=C(Nc1ccc(-c2ccc3c(c2)C(=O)N([C@@H]2CCC[C@@H]2C(=O)O)C3)cc1)c1ccc(-c2ccccc2)cc1 [Example 594, (1S,2R)-2-(6-(4-([1,1′-Biphenyl]-4-ylcarboxamido)phenyl)-1-oxoisoindolin-2-yl)cyclopentanecarboxylic acid]		++ (>50% Inhibition)
O=C(O)CN1Cc2ccc(-c3ccc(NC(=O)Nc4cccc(C(F)(F)F)c4)cc3)cc2C1=O [Example 334, 2-(1-Oxo-6-(4-(3-(3-(trifluoromethyl)phenyl)ureido)phenyl)isoindolin-2-yl)acetic acid]	10 to 50%	
CC(C)[C@@H](C(=O)O)N1Cc2cc(-c3ccc(NC(=O)c4cccc(F)c4)cc3)ccc2C1=O [Example 313, (S)-2-(5-(4-(3-Fluorobenzamido)phenyl)-1-oxoisoindolin-2-yl)-3-methylbutanoic acid]	10 to 50%	
CCCCOc1ccc(C(=O)Nc2ccc(-c3ccc4c(c3)C(=O)N([C@H](C(=O)O)C(C)C)C4)c(Cl)c2)cc1 [Example 484, (S)-2-(6-(4-(4-Butoxybenzamido)-2-chlorophenyl)-1-oxoisoindolin-2-yl)-3-methylbutanoic acid]	> 50%	
CCCCCc1ccc(C(=O)Nc2ccc(-c3ccc4c(c3)CN([C@H](C(=O)O)C(C)C)C4=O)cc2)cc1 [Example 325, (S)-3-Methyl-2-(1-oxo-5-(4-(4-pentylbenzamido)phenyl)isoindolin-2-yl)butanoic acid]	10 to 50%	
O=C(O)CN1Cc2cc(-c3ccc(NC(=O)Nc4cccc(C(F)(F)F)c4)cc3)ccc2C1=O [Example 364, 2-(1-Oxo-5-(4-(3-(3-(trifluoromethyl)phenyl)ureido)phenyl)isoindolin-2-yl)acetic acid]	10 to 50%	
CC(C)[C@@H](C(=O)O)N1Cc2ccc(-c3ccc(NC(=S)Nc4cccc(C#N)c4)cc3)cc2C1=O [Example 70, (S)-2-(6-(4-(3-(3-Cyanophenyl)thioureido)phenyl)-1-oxoisoindolin-2-yl)-3-methylbutanoic acid]	10 to 50%	
COc1ccc(OC)c(C(=O)Nc2ccc(-c3ccc4c(c3)C(=O)N([C@H](C(=O)O)C(C)C)C4)cc2)c1 [Example 180, (S)-2-(6-(4-(3,6-Dimethoxybenzamido)phenyl)-1-oxoisoindolin-2-yl)-3-methyl butanoic acid]	> 50%	
CC(C)[C@@H](C(=O)O)N1Cc2ccc(-c3ccc(NC(=O)Nc4ccc(C(F)(F)F)cc4)cc3)cc2C1=O [Example 36, (S)-3-Methyl-2-(1-oxo-6-(4-(3-(4-(trifluoromethyl)phenyl)ureido)phenyl)isoindolin-2-yl)butanoic acid]	> 50%	
CC(C)[C@@H](C(=O)O)N1Cc2cc(-c3ccc(NC(=O)Nc4ccccc4)cc3)ccc2C1=O [Example 231, (S)-3-Methyl-2-(1-oxo-5-(4-(3-phenylureido)phenyl)isoindolin-2-yl)butanoic acid]	10 to 50%	
COc1cccc(NC(=O)Nc2ccc(-c3ccc4c(c3)CN([C@H](C(=O)O)C(C)C)C4=O)cc2)c1 [Example 251, (S)-2-(5-(4-(3-(3-Methoxyphenyl)ureido)phenyl)-1-oxoisoindolin-2-yl)-3-methylbutanoic acid]	> 50%	
CC(C)[C@@H](C(=O)O)N1Cc2cc(-c3ccc(NC(=O)c4cccc(Cl)c4)cc3)ccc2C1=O [Example 315, (S)-2-(5-(4-(3-Chlorobenzamido)phenyl)-1-oxoisoindolin-2-yl)-3-methylbutanoic acid]	10 to 50%	
CCCCCCCCCCc1ccc(C(=O)Nc2ccc(-c3ccc4c(c3)C(=O)N([C@H](C(=O)O)C(C)C)C4)cc2)cc1 [Example 188, (S)-2-(6-(4-(4-Decylbenzamido)phenyl)-1-oxoisoindolin-2-yl)-3-methyl butanoic acid]	> 50%	
COc1ccc(S(=O)(=O)Nc2ccc(-c3ccc4c(c3)CN([C@H](C(=O)O)C(C)C)C4=O)cc2)cc1OC [Example 293, (S)-2-(5-(4-(3,4-Dimethoxyphenylsulfonamido)phenyl)-1-oxoisoindolin-2-yl)-3-methylbutanoic acid]	10 to 50%	
COc1ccc(NC(=S)Nc2ccc(-c3ccc4c(c3)CN([C@H](C(=O)O)C(C)C)C4=O)cc2)cc1 [Example 261, (S)-2-(5-(4-(3-(4-Methoxyphenyl)thioureido)phenyl)-1-oxoisoindolin-2-yl)-3-methylbutanoic acid]	10 to 50%	

— patent US8748426B2, “Inhibitors of diacylglycerol acyl transferase” (Piramal Enterprises Limited, priority 2009, dated 2014)
